Results published in patent US9469652B2, “ERK inhibitors” (Eli Lilly and Company, priority 2014, dated 2016).

Key:
[1] = molecular target: T1, ERK1 (Homo sapiens, UniProt P27361); experiment: ERK1 Kinase Assay (TR-FRET); format: biochemical; settings: Abs_IC50, ATP 10 μM, GFP-ATF2 substrate; ±0.20, n=7
T1 construct: purchased Invitrogen PR5254B
Description: The purpose of this assay is to measure the ability of compounds to inhibit ERK1 kinase activity. Perform the ERK1 kinase assay in vitro using a TR-FRET assay. Start reactions (12.5 μL) by adding 5 μL of ERK1 enzyme (Invitrogen, #PR5254B, final concentration 100 ng/mL) plus substrate GFP-ATF2 (Invitrogen, #PV4445, final concentration 0.2 μM), 5 μL of ATP solution (Invitrogen, #PV3227, final concentration 10 μM) prepared in kinase buffer (50 mM Hepes pH 7.4, 5 mM MgCl2, 0.1 mM EGTA, 0.01% Triton X-100, 1 mM DTT) and 2.5 μL of testing compounds in DMSO solution (final 4%, v/v) in a 384-well PROXIPLATE™ (Perkin Elmer, #GRN6260). Incubate the reaction mixture at room temperature for 60 minutes. Stop the reaction by addition of 12.5 μL of stop buffer (10 mM EDTA, 2 nM Tb-anti-pATF2 (pThr71) antibody, Invitrogen, #PV4448) in TR-FRET dilution buffer (Invitrogen, #PV3574). Incubate the plates at room temperature for an additional 60 minutes and read on an ENVISION® (PerkinElmer) plate reader at the excitation wavelength 340 nm Calculate the TR-FRET ratio by dividing the GFP acceptor emission signal (at 520 nm) by the Tb donor emission signal (at 495 nm). Calculate percent inhibition using compound treated wells relative to on-plate Max (DMSO control) and Min (No enzyme added) control wells TR-FRET ratio data {% inhibition=100−[(test compound−median Min)/(median Max−median Min)×100]}. […]

[2] = system: RSK1 phosphorylation in HCT116 tumor xenograft; experiment: In Vivo Target Inhibition (IVTI) Assay (pRSK1 ELISA Assay); set-up: species or system female athymic nude mice; settings: oral dosing
Description: The purpose of this assay is to measure the ability of a test compound to inhibit ERK1/2 substrate phosphorylation in an animal model Implant female athymic nude mice (22-25 g) from Harlan Laboratories with 5×10e^6 HCT116 colorectal cancer cells (ATCC, #CCL-247) subcutaneously in the right flank region in 200 μL of 1:1 Hank's Balanced Salt Solution (HBSS)+Matrigel solution. Measure tumor growth and body weight twice per week beginning the seventh day after the implantation. When tumor sizes reach 300-500 mm^3, randomize animals and group into groups of five animals. […]
Pulverize tumors in liquid nitrogen and lyse in 1× lysis buffer (MSD, #R60TX-3) containing 1× halt protease & phosphatase inhibitor cocktail (Thermo Scientific, #0861281), 1 mM phenylmethanesulfonyl fluoride (PMSF) (Sigma, #93482-50ML-F) and 1 μM sodium metavanadate (Sigma, #590088) using Matrix D beads (MP Biomedical, #6913-500) in a FastPrep-24™ Cell Disrupter machine (MP Biomedical) in a cold room (4° C.). […] Cool plate to room temperature and measure the absorbance at or near 562 nm on a plate reader (Envision plate reader from Perkin Elmer). Subtract the average 562 nm absorbance measurement of the blank standard replicates from the 562 nm measurements of all other individual standard and unknown (cell or tumor lysate) sample replicates. […]

T1 sequence (P27361 whole entry): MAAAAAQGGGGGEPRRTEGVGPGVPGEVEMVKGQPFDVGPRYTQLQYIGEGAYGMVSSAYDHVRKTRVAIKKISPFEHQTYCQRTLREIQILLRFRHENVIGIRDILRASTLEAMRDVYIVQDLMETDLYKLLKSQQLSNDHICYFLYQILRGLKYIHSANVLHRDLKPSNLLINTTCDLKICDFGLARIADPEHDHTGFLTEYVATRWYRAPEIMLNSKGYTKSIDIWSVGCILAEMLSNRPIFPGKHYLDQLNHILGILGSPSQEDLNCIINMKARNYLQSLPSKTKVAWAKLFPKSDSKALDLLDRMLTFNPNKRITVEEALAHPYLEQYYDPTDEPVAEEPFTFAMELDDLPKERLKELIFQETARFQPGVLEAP

Cn1nccc1Nc1nccc(-c2cc3c(s2)C(C)(C)N(CCN2CCOCC2)C3=O)n1 [Example 1, 6,6-Dimethyl-2-{2-[(1-methyl-1H-pyrazol-5-yl)amino]pyrimidin-4-yl}-5-[2-(morpholin-4-yl)ethyl]-5,6-dihydro-4H-thieno[2,3-c]pyrrol-4-one]
IC50 [1]: 4.86 nM | TED50, pRSK1 inhibition in tumor [2]: 16 mg/kg
